Patent US10351548B2, “2-oxo-1,2-dihydropyridine-3-carboxamide compounds and their use as inhibitors of PDK1” (INTERNATIONAL SOCIETY FOR DRUG DEVELOPMENT S.R.L., priority 2015, dated 2019)
Read-outs that look alike come from different tables or passages of the source.

What was measured:
[1] = test system: GSCs isolated from U87MG cells; assay: Annexin V and 7-AAD staining in GSCs (apoptosis); type: cell-based, human; conditions: 10 μM, 7 days
Procedure: Dual staining with Annexin V coniugated to fluorescein-isothiocyanate (FITC) and 7-amino-actinomysin (7-AAD) was performed using the commercially available kit (Muse Annexin V and Dead Cell Kit; Merck KGaA, Darmstadt, Germany). U87MG cells or GSCs were treated with DMSO (control), SA16, SA23 or IB35 for 72 h or seven days, respectively. At the end of the treatment periods, the percentages of living, apoptotic and dead cells were acquired and analysed by Muse™ Cell Analyzer as previously described (Daniele, S., et al., Combined inhibition of AKT/mTOR and MDM2 enhances Glioblastoma Multiforme cell apoptosis and differentiation of cancer stem cells. Sci. Rep., 2015. 5.).
It was investigated if the reduction of cell proliferation elicited by the two compounds could be associated to cell apoptosis. […] At the end of treatments, the cells were collected and the degree of phosphatidylserine externalisation was evaluated using the Annexin V protocol, as above described (FIG. 10). The data were expressed as the percentage of apoptotic cells (early-apoptotic in white, late-apoptotic/necrotic in grey) relative to the total number of cells and represented in FIG. 11. […] The significance of the differences was determined with a one-way ANOVA with Bonferroni post-test (*** p<0.001 vs. control).

[2] = target: CDK7/cyclin H/MNAT1 (Homo sapiens (Human), UniProt P50613); assay: IB35 kinases profiling at 100 nM (Adapta); type: biochemical; conditions: IB35 100 nM, ATP Km app
Sequence of CDK7/cyclin H/MNAT1 (P50613 whole entry): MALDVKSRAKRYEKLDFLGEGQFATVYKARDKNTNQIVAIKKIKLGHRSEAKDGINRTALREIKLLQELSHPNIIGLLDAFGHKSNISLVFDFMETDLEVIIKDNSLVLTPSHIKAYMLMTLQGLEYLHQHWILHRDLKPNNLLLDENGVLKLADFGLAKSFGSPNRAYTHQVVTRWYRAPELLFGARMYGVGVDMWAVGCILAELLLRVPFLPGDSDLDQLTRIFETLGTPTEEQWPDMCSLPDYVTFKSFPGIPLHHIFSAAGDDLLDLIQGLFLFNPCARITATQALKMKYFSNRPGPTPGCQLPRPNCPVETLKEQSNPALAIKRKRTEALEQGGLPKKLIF
Sequence of CDK7/cyclin H/MNAT1 (P51946 whole entry partner): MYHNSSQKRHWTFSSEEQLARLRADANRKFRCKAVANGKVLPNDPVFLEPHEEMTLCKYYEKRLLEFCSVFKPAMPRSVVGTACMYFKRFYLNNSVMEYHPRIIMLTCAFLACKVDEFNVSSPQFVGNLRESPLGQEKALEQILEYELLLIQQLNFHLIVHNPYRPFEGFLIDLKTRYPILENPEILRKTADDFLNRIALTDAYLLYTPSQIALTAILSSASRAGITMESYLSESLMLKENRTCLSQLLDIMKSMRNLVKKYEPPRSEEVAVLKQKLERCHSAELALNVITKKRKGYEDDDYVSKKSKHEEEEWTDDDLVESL
Sequence of CDK7/cyclin H/MNAT1 (P51948 whole entry partner): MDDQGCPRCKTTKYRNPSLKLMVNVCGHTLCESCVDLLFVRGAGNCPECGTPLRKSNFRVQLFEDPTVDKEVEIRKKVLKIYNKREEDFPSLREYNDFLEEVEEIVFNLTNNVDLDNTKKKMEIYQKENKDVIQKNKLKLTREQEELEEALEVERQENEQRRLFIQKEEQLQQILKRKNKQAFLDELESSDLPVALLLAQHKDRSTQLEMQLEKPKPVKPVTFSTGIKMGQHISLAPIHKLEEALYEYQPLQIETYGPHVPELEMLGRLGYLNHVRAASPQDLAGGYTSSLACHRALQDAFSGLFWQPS
Description: (§1) The results are reported below

[3] = target: CDK9/cyclin T1 (Homo sapiens (Human), UniProt P50750); assay: IB35 kinases profiling at 100 nM (Adapta); type: biochemical; conditions: IB35 100 nM, ATP Km app
Description: as §1

[4] = target: CHUK (IKK alpha) (Homo sapiens (Human), UniProt O15111); assay: IB35 kinases profiling at 100 nM (Adapta); type: biochemical; conditions: IB35 100 nM, ATP Km app
Sequence of CHUK (IKK alpha) (O15111 whole entry): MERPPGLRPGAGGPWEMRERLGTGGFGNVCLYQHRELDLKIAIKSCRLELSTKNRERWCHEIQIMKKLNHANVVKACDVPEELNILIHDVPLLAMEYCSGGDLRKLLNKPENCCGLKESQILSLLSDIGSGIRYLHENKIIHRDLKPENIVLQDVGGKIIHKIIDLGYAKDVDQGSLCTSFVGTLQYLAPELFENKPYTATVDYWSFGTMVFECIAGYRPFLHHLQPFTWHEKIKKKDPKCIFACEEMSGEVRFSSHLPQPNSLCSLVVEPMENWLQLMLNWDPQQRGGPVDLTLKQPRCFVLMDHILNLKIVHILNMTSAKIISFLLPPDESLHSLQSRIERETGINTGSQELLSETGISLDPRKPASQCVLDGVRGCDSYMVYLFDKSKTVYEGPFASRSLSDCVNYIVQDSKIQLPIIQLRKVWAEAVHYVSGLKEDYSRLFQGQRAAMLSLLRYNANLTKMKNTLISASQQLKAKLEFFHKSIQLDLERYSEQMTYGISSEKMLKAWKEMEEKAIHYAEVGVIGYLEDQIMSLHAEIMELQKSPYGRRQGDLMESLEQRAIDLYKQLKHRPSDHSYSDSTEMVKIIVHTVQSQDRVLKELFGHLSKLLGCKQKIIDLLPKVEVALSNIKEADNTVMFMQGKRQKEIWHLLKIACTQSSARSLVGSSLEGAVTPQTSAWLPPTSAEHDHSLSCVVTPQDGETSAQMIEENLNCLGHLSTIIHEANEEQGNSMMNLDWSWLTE
Description: as §1

[5] = target: PIK3CA/PIK3R1 (p110 alpha/p85 alpha) (Homo sapiens (Human), UniProt P42336); assay: IB35 kinases profiling at 100 nM (Adapta); type: biochemical; conditions: IB35 100 nM, ATP Km app
Description: as §1

[6] = target: PIK3CD/PIK3R1 (p110 delta/p85 alpha) (Homo sapiens (Human), UniProt O00329); assay: IB35 kinases profiling at 100 nM (Adapta); type: biochemical; conditions: IB35 100 nM, ATP Km app
Description: as §1

[7] = target: PIK3CG (p110 gamma) (Homo sapiens (Human), UniProt P48736); assay: IB35 kinases profiling at 100 nM (Adapta); type: biochemical; conditions: IB35 100 nM, ATP Km app
Description: as §1

[8] = target: AKT1 (PKB alpha) (Homo sapiens (Human), UniProt P31749); assay: IB35 kinases profiling at 100 nM (ZLYTE); type: biochemical; conditions: IB35 100 nM, ATP Km app
Description: as §1

[9] = target: AKT3 (PKB gamma) (Homo sapiens (Human), UniProt Q9Y243); assay: IB35 kinases profiling at 100 nM (ZLYTE); type: biochemical; conditions: IB35 100 nM, ATP Km app
Sequence of AKT3 (PKB gamma) (Q9Y243 whole entry): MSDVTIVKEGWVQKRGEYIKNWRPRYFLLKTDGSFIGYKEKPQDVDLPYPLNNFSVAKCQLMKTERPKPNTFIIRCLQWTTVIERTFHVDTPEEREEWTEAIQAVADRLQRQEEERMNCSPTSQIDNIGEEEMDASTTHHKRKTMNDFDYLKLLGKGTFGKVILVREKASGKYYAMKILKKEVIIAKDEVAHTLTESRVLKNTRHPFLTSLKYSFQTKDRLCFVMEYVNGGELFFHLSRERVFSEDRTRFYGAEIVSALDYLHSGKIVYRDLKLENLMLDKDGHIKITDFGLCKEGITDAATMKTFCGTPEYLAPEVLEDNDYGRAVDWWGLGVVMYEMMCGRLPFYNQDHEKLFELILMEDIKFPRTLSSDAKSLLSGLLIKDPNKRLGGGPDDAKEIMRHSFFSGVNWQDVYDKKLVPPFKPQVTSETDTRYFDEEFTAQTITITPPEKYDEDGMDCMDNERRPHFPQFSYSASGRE
Description: as §1

[10] = target: AMPK A2/B1/G1 (Homo sapiens (Human), UniProt P54646); assay: IB35 kinases profiling at 100 nM (ZLYTE); type: biochemical; conditions: IB35 100 nM, ATP Km app
Description: as §1

[11] = target: CAMK2A (CaMKII alpha) (Homo sapiens (Human), UniProt Q9UQM7); assay: IB35 kinases profiling at 100 nM (ZLYTE); type: biochemical; conditions: IB35 100 nM, ATP Km app
Description: as §1

[12] = target: CSNK2A2 (CK2 alpha 2) (Homo sapiens (Human), UniProt P19784); assay: IB35 kinases profiling at 100 nM (ZLYTE); type: biochemical; conditions: IB35 100 nM, ATP Km app
Description: as §1

[13] = target: FRAP1 (mTOR) (Homo sapiens (Human), UniProt P42345); assay: IB35 kinases profiling at 100 nM (ZLYTE); type: biochemical; conditions: IB35 100 nM, ATP Km app
Description: as §1

[14] = target: JAK1 (Homo sapiens (Human), UniProt P23458); assay: IB35 kinases profiling at 100 nM (ZLYTE); type: biochemical; conditions: IB35 100 nM, ATP Km app
Sequence of JAK1 (P23458 whole entry, species assumed): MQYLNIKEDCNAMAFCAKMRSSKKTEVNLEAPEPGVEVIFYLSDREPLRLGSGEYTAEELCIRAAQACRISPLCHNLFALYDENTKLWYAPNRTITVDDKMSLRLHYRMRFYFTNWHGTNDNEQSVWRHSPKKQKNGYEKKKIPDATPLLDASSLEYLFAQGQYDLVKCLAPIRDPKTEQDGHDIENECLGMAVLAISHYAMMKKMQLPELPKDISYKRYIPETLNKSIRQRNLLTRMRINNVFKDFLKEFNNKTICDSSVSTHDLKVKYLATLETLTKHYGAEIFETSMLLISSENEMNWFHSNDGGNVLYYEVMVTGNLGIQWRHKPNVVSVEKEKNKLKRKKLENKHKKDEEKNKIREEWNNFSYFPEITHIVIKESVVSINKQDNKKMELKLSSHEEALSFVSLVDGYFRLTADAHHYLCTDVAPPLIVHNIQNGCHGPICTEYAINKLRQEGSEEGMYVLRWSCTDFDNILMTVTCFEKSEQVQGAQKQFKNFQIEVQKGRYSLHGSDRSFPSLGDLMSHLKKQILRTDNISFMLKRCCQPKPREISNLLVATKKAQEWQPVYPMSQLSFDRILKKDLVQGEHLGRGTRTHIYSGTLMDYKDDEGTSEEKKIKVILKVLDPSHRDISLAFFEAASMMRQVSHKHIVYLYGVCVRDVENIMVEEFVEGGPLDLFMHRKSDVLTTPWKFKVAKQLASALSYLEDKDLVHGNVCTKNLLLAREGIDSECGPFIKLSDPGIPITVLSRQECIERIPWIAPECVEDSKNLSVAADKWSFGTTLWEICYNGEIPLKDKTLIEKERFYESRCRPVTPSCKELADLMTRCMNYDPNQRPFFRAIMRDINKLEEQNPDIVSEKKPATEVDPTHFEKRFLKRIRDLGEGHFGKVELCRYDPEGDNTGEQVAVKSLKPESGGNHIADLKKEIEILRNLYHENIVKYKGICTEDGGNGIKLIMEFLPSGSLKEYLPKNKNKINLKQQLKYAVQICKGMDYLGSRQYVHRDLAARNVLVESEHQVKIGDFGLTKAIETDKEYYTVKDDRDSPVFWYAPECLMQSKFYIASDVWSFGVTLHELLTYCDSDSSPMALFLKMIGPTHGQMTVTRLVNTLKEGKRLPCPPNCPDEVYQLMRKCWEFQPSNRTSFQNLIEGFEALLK
Description: as §1

[15] = target: MAP2K1 (MEK1) (Homo sapiens (Human), UniProt Q02750); assay: IB35 kinases profiling at 100 nM (ZLYTE); type: biochemical; conditions: IB35 100 nM, ATP 100
Description: as §1

[16] = target: MAPK1 (ERK2) (Homo sapiens (Human), UniProt P28482); assay: IB35 kinases profiling at 100 nM (ZLYTE); type: biochemical; conditions: IB35 100 nM, ATP Km app
Description: as §1

[17] = target: MAPK14 (p38 alpha) Direct (Homo sapiens (Human), UniProt Q16539); assay: IB35 kinases profiling at 100 nM (ZLYTE); type: biochemical; conditions: IB35 100 nM, ATP Km app
Sequence of MAPK14 (p38 alpha) Direct (Q16539 whole entry): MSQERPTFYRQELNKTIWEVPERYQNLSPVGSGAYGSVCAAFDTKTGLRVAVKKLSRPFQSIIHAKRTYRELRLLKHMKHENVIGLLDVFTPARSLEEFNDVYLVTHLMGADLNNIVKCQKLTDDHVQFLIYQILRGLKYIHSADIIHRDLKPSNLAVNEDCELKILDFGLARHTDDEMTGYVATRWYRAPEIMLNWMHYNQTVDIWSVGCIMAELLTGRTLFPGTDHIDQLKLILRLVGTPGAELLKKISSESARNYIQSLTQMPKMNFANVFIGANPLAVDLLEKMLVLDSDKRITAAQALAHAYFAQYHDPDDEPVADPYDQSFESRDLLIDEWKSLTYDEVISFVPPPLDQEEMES
Description: as §1

[18] = target: MAPK9 (JNK2) (Homo sapiens (Human), UniProt P45984); assay: IB35 kinases profiling at 100 nM (ZLYTE); type: biochemical; conditions: IB35 100 nM, ATP 100
Sequence of MAPK9 (JNK2) (P45984 whole entry, species assumed): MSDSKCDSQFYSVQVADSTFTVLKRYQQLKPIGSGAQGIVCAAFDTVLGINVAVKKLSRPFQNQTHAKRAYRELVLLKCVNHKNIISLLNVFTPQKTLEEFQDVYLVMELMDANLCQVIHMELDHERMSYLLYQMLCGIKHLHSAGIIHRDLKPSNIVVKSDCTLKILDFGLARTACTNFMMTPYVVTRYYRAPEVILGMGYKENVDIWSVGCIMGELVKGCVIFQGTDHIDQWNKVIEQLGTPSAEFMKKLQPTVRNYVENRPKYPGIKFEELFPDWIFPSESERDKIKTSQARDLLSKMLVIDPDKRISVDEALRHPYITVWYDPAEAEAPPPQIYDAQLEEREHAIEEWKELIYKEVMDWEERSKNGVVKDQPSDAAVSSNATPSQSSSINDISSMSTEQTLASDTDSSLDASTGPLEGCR
Description: as §1

[19] = target: PAK6 (Homo sapiens (Human), UniProt Q9NQU5); assay: IB35 kinases profiling at 100 nM (ZLYTE); type: biochemical; conditions: IB35 100 nM, ATP Km app
Description: as §1

[20] = target: PRKCA (PKC alpha) (Homo sapiens (Human), UniProt P17252); assay: IB35 kinases profiling at 100 nM (ZLYTE); type: biochemical; conditions: IB35 100 nM, ATP Km app
Description: as §1

[21] = target: ROCK1 (Homo sapiens (Human), UniProt Q13464); assay: IB35 kinases profiling at 100 nM (ZLYTE); type: biochemical; conditions: IB35 100 nM, ATP Km app
Description: as §1

## O=C(CNC(=O)c1cccn(Cc2ccc(F)c(F)c2)c1=O)Nc1ccc2c(c1)/C(=C/c1cnc[nH]1)C(=O)N2 [IB35, (Z)—N-(2-((3-((1H-imidazol-5-yl)methylene)-2-oxoindolin-5-yl)amino)-2-oxoethyl)-1-(3,4-difluorobenzyl)-2-oxo-1,2-dihydro pyridine-3-carboxamide]
[1]
  percentage of total apoptotic cells: 38.5±3.9%
[2]; read-out: % Inhibition 1
  inhibition at 0.1 µM: 2%
[2]; read-out: % Inhibition 2
  inhibition at 0.1 µM: -1%
[2]; read-out: % Inhibition Avg
  inhibition at 0.1 µM: 1%
[3]; read-out: % Inhibition 1
  inhibition at 0.1 µM: 7%
[3]; read-out: % Inhibition 2
  inhibition at 0.1 µM: 5%
[3]; read-out: % Inhibition Avg
  inhibition at 0.1 µM: 6%
[4]; read-out: % Inhibition 1
  inhibition at 0.1 µM: -2%
[4]; read-out: % Inhibition 2
  inhibition at 0.1 µM: 7%
[4]; read-out: % Inhibition Avg
  inhibition at 0.1 µM: 3%
[5]; read-out: % Inhibition 1
  inhibition at 0.1 µM: 16%
[5]; read-out: % Inhibition 2
  inhibition at 0.1 µM: 24%
[5]; read-out: % Inhibition Avg
  inhibition at 0.1 µM: 20%
[6]; read-out: % Inhibition 1
  inhibition at 0.1 µM: 13%
[6]; read-out: % Inhibition 2
  inhibition at 0.1 µM: 21%
[6]; read-out: % Inhibition Avg
  inhibition at 0.1 µM: 17%
[7]; read-out: % Inhibition 1
  inhibition at 0.1 µM: 6%
[7]; read-out: % Inhibition 2
  inhibition at 0.1 µM: -1%
[7]; read-out: % Inhibition Avg
  inhibition at 0.1 µM: 2%
[8]; read-out: % Inhibition 1
  inhibition at 0.1 µM: -6%
[8]; read-out: % Inhibition 2
  inhibition at 0.1 µM: -9%
[8]; read-out: % Inhibition Avg
  inhibition at 0.1 µM: -8%
[9]; read-out: % Inhibition 1
  inhibition at 0.1 µM: 3%
[9]; read-out: % Inhibition 2
  inhibition at 0.1 µM: 1%
[9]; read-out: % Inhibition Avg
  inhibition at 0.1 µM: 2%
[10]; read-out: % Inhibition 1
  inhibition at 0.1 µM: 10%
[10]; read-out: % Inhibition 2
  inhibition at 0.1 µM: 11%
[10]; read-out: % Inhibition Avg
  inhibition at 0.1 µM: 10%
[11]; read-out: % Inhibition 1
  inhibition at 0.1 µM: -1%
[11]; read-out: % Inhibition 2
  inhibition at 0.1 µM: 2%
[11]; read-out: % Inhibition Avg
  inhibition at 0.1 µM: 0%
[12]; read-out: % Inhibition 1
  inhibition at 0.1 µM: 4%
[12]; read-out: % Inhibition 2
  inhibition at 0.1 µM: 3%
[12]; read-out: % Inhibition Avg
  inhibition at 0.1 µM: 3%
[13]; read-out: % Inhibition 1
  inhibition at 0.1 µM: -10%
[13]; read-out: % Inhibition 2
  inhibition at 0.1 µM: -18%
[13]; read-out: % Inhibition Avg
  inhibition at 0.1 µM: -14%
[14]; read-out: % Inhibition 1
  inhibition at 0.1 µM: -10%
[14]; read-out: % Inhibition 2
  inhibition at 0.1 µM: -6%
[14]; read-out: % Inhibition Avg
  inhibition at 0.1 µM: -8%
[15]; read-out: % Inhibition 1
  inhibition at 0.1 µM: -20%
[15]; read-out: % Inhibition 2
  inhibition at 0.1 µM: -6%
[15]; read-out: % Inhibition Avg
  inhibition at 0.1 µM: -13%
[16]; read-out: % Inhibition 1
  inhibition at 0.1 µM: 5%
[16]; read-out: % Inhibition 2
  inhibition at 0.1 µM: 6%
[16]; read-out: % Inhibition Avg
  inhibition at 0.1 µM: 6%
[17]; read-out: % Inhibition 1
  inhibition at 0.1 µM: 2%
[17]; read-out: % Inhibition 2
  inhibition at 0.1 µM: 4%
[17]; read-out: % Inhibition Avg
  inhibition at 0.1 µM: 3%
[18]; read-out: % Inhibition 1
  inhibition at 0.1 µM: 3%
[18]; read-out: % Inhibition 2
  inhibition at 0.1 µM: -5%
[18]; read-out: % Inhibition Avg
  inhibition at 0.1 µM: -1%
[19]; read-out: % Inhibition 1
  inhibition at 0.1 µM: 1%
[19]; read-out: % Inhibition 2
  inhibition at 0.1 µM: -9%
[19]; read-out: % Inhibition Avg
  inhibition at 0.1 µM: -4%
[20]; read-out: % Inhibition 1
  inhibition at 0.1 µM: -2%
[20]; read-out: % Inhibition 2
  inhibition at 0.1 µM: 2%
[20]; read-out: % Inhibition Avg
  inhibition at 0.1 µM: 0%
[21]; read-out: % Inhibition 1
  inhibition at 0.1 µM: -9%
[21]; read-out: % Inhibition 2
  inhibition at 0.1 µM: -6%
[21]; read-out: % Inhibition Avg
  inhibition at 0.1 µM: -7%
